Our source for the IC50 and Ratio IC50 values is ChEMBL document CHEMBL2203034, “A new approach to explore the binding space of polysaccharide-based ligands: selectin antagonists” (ACS Med Chem Lett, 2012).

The target in one assay is T1, P-selectin (Homo sapiens, UniProt P16109).
T1 sequence (P16109 whole entry): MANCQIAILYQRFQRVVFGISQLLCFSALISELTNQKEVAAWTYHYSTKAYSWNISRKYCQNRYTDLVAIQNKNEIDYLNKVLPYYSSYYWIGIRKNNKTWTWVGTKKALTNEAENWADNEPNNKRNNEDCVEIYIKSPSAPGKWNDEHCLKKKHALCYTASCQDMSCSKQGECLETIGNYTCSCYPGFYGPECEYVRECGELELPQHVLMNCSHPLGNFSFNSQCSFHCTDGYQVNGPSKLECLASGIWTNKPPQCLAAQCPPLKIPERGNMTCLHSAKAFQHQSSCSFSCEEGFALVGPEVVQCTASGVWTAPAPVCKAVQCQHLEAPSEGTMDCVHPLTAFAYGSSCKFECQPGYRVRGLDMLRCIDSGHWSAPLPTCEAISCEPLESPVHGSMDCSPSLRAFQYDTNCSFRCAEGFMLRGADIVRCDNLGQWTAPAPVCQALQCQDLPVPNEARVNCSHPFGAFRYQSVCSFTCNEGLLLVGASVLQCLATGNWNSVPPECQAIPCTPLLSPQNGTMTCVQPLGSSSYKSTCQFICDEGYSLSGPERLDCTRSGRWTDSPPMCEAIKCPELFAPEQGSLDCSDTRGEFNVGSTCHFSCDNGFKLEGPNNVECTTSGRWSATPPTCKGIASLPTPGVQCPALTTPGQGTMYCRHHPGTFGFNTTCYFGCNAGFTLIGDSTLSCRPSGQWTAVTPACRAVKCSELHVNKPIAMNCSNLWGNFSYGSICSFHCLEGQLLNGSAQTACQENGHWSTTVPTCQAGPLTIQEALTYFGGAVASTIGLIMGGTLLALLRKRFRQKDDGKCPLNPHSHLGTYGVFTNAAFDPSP
Put plainly: Inhibition of immobilized rhPSGL-Ig binding to soluble P-selectin by surface plasmon resonance competitive binding assay.

The target of assay [1] is T2, P-selectin (Homo sapiens) (UniProt P16109).
T2 sequence (whole entry): T1 sequence (P16109 whole entry)
Put plainly: Ratio of compound IC50 to sialyl Lewisx IC50 for solube P-selectin by surface plasmon resonance competitive binding assay.

One may read the IC50 as the concentration at which inhibition is half-maximal. Low values mean inhibition by little substance, high ones a need for much substance. Consider `COC(=O)[C@H](O[C@@H]1O[C@@H](C)[C@@H](O)[C@@H](O)[C@@H]1O)[C@@H](O[C@@H]1O[C@H](CO)[C@H](O)[C@H](OCC(=O)O)[C@H]1O)C(=O)OC`, for which, at P-selectin, the IC50 is greater than 1000 µM.

For `COC(=O)[C@H](O[C@@H]1O[C@@H](C)[C@@H](O)[C@@H](O)[C@@H]1O)[C@@H](O[C@@H]1O[C@H](CO)[C@H](O)[C@H](O[C@H](Cc2ccccc2)C(=O)O)[C@H]1O)C(=O)OC`, in assay [1], the Ratio IC50 worked out at 0.75. In addition, the IC50 on P-selectin came out at 880 µM. Consider `COC(=O)[C@H](O[C@@H]1O[C@@H](C)[C@@H](O)[C@@H](O)[C@@H]1O)[C@@H](O[C@@H]1O[C@H](CO)[C@H](OC(=O)c2ccccc2)[C@H](O[C@H](Cc2ccccc2)C(=O)O)[C@H]1O)C(=O)OC`, for which, in assay [1], the Ratio IC50 is 37. The IC50 on P-selectin is 18 µM.

`COC(=O)[C@H](O[C@@H]1O[C@@H](C)[C@@H](O)[C@@H](O)[C@@H]1O)[C@@H](O[C@@H]1O[C@H](CO)[C@H](OC(=O)c2cccc3ccccc23)[C@H](O[C@H](Cc2ccccc2)C(=O)O)[C@H]1O)C(=O)OC` gave a half-inhibitory concentration (IC50) on P-selectin greater than 1000 µM.
